Experiments:
[1] = species: Rattus norvegicus; test: Equilibrium dissociation constant based on aqueous concentration in rat smooth muscle; assay type: ADME, Muscle tissue
[2] = species: Rattus norvegicus; test: Equilibrium dissociation constant based on membrane concentration in rat smooth muscle; assay type: ADME, Muscle tissue
[3] = Partition coefficient of compound in to octanol/buffer; assay type: physicochemical; conditions: octanol/water
[4] = sarcoplasmic reticulum membrane
Description: Partition coefficient of compound in to biological membranes

[5] = species: Rattus norvegicus; test: Equilibrium dissociation constant based on membrane concentration in rat cardiac muscle

Structure (SMILES)	Kd [1]	Kd [2]	Partition coefficient [3]	Partition coefficient [4]	Kd [5]
CCOC(=O)C1=C(COCCN)NC(C)=C(C(=O)OC)C1c1ccccc1Cl (stereo not drawn) [AMLODIPINE]	1.2 nM	23000 nM	30	19000	–
CN/C(=N/CCSCc1nc[nH]c1C)NC#N [CIMETIDINE]	–	–	1	–	–
COC(=O)C1=C(C)NC(C)=C(C(=O)OC)C1c1ccccc1[N+](=O)[O-] [NIFEDIPINE]	0.41 nM	23000 nM	–	–	–
COCCOC(=O)C1=C(C)NC(C)=C(C(=O)OC(C)C)C1c1cccc([N+](=O)[O-])c1 (stereo not drawn) [NIMODIPINE]	0.11 nM	690 nM	730	6300	–
COC(=O)C1=C(C)NC(C)=C(C(=O)OCC(C)C)C1c1ccccc1[N+](=O)[O-] (stereo not drawn) [NISOLDIPINE]	0.14 nM	–	40	13000	1800 nM
CC(C)NCC(O)COc1cccc2ccccc12 (stereo not drawn) [PROPRANOLOL]	–	–	18	1200	–
CC(C)(C)NC[C@H](O)COc1nsnc1N1CCOCC1 [TIMOLOL]	–	–	0.7	–	–

Source: ChEMBL document CHEMBL1125846, “Reevaluating equilibrium and kinetic binding parameters for lipophilic drugs based on a structural model for drug interaction with biological membranes” (J Med Chem, 1991)
